ChEMBL document CHEMBL5303573, “Mapping human microbiome drug metabolism by gut bacteria and their genes” (Nature, 2019)

What was measured:
[1] = The drug is tested on Anaerococcus hydrogenalis strain: DSM7454 for biotransformation. The drug concentrations were measured before and after a 12-h incubation by liquid-chromatography-coupled mass spectrometry (LC–MS); conditions: 2 µM
[2] = The drug is tested on Bacteroides pectinophilus strain: ATCC43243 for biotransformation. The drug concentrations were measured before and after a 12-h incubation by liquid-chromatography-coupled mass spectrometry (LC–MS); conditions: 2 µM
[3] = The drug is tested on Providencia rettgeri strain: DSM1131 for biotransformation. The drug concentrations were measured before and after a 12-h incubation by liquid-chromatography-coupled mass spectrometry (LC–MS); format: ADME; set-up: dose 2 uM, timepoint 0 vs 12 hours; conditions: 2 µM
[4] = The drug is tested on Enterococcus faecalis strain: V583 for biotransformation. The drug concentrations were measured before and after a 12-h incubation by liquid-chromatography-coupled mass spectrometry (LC–MS); conditions: 2 µM
[5] = segatella copri, 12 h, 2 µM
Description: The drug is tested on Prevotella copri strain: DSM18205 for biotransformation. The drug concentrations were measured before and after a 12-h incubation by liquid-chromatography-coupled mass spectrometry (LC–MS)

[6] = The drug is tested on Collinsella aerofaciens strain: ATCC25986 for biotransformation. The drug concentrations were measured before and after a 12-h incubation by liquid-chromatography-coupled mass spectrometry (LC–MS); conditions: 2 µM
[7] = The drug is tested on Alistipes indistinctus strain: DSM22520 for biotransformation. The drug concentrations were measured before and after a 12-h incubation by liquid-chromatography-coupled mass spectrometry (LC–MS); conditions: 2 µM
[8] = bacteroides fragilis, 12 h, 2 µM
Description: The drug is tested on Bacteroides fragilis strain: NCTC 9343 for biotransformation. The drug concentrations were measured before and after a 12-h incubation by liquid-chromatography-coupled mass spectrometry (LC–MS)

[9] = The drug is tested on Collinsella intestinalis strain: DSM13280 for biotransformation. The drug concentrations were measured before and after a 12-h incubation by liquid-chromatography-coupled mass spectrometry (LC–MS); conditions: 2 µM
[10] = The drug is tested on Bacteroides xylanisolvens strain: DSM18836 for biotransformation. The drug concentrations were measured before and after a 12-h incubation by liquid-chromatography-coupled mass spectrometry (LC–MS); conditions: 2 µM
[11] = bacteroides intestinalis, 12 h, 2 µM
Description: The drug is tested on Bacteroides intestinalis strain: DSM17393 for biotransformation. The drug concentrations were measured before and after a 12-h incubation by liquid-chromatography-coupled mass spectrometry (LC–MS)

[12] = The drug is tested on Bacteroides fragilis strain: ATCC43859 for biotransformation. The drug concentrations were measured before and after a 12-h incubation by liquid-chromatography-coupled mass spectrometry (LC–MS); conditions: 2 µM
[13] = The drug is tested on Dorea formicigenerans strain: ATCC27755 for biotransformation. The drug concentrations were measured before and after a 12-h incubation by liquid-chromatography-coupled mass spectrometry (LC–MS); conditions: 2 µM
[14] = The drug is tested on Eubacterium rectale strain: ATCC33656 for biotransformation. The drug concentrations were measured before and after a 12-h incubation by liquid-chromatography-coupled mass spectrometry (LC–MS); conditions: agathobacter rectalis, 2 µM
[15] = The drug is tested on Ruminococcus gnavus strain: ATCC29149 for biotransformation. The drug concentrations were measured before and after a 12-h incubation by liquid-chromatography-coupled mass spectrometry (LC–MS); conditions: mediterraneibacter gnavus, 2 µM
[16] = The drug is tested on Bifidobacterium breve strain: DSM20213 for biotransformation. The drug concentrations were measured before and after a 12-h incubation by liquid-chromatography-coupled mass spectrometry (LC–MS); conditions: 2 µM
[17] = The drug is tested on Escherichia coli strain: BW25113 for biotransformation. The drug concentrations were measured before and after a 12-h incubation by liquid-chromatography-coupled mass spectrometry (LC–MS); conditions: 2 µM
[18] = parabacteroides distasonis, 12 h, 2 µM
Description: The drug is tested on Parabacteroides distasonis strain: ATCC8503 for biotransformation. The drug concentrations were measured before and after a 12-h incubation by liquid-chromatography-coupled mass spectrometry (LC–MS)

[19] = enterocloster bolteae, 12 h, 2 µM
Description: The drug is tested on Clostridium bolteae strain: ATCCBAA-613 for biotransformation. The drug concentrations were measured before and after a 12-h incubation by liquid-chromatography-coupled mass spectrometry (LC–MS)

[20] = The drug is tested on Bacteroides fragilis strain: HMW610 for biotransformation. The drug concentrations were measured before and after a 12-h incubation by liquid-chromatography-coupled mass spectrometry (LC–MS); conditions: 2 µM
[21] = The drug is tested on Bacteroides caccae strain: ATCC43185 for biotransformation. The drug concentrations were measured before and after a 12-h incubation by liquid-chromatography-coupled mass spectrometry (LC–MS); conditions: 2 µM
[22] = The drug is tested on Eubacterium ventriosum strain: ATCC27560 for biotransformation. The drug concentrations were measured before and after a 12-h incubation by liquid-chromatography-coupled mass spectrometry (LC–MS); format: ADME; set-up: dose 2 uM, timepoint 0 vs 12 hours; conditions: 2 µM
[23] = The drug is tested on Clostridium symbiosum strain: ATCC14940 for biotransformation. The drug concentrations were measured before and after a 12-h incubation by liquid-chromatography-coupled mass spectrometry (LC–MS); conditions: 2 µM
[24] = bacteroides thetaiotaomicron, 12 h, 2 µM
Description: The drug is tested on Bacteroides thetaiotaomicron strain: VPI-5482 for biotransformation. The drug concentrations were measured before and after a 12-h incubation by liquid-chromatography-coupled mass spectrometry (LC–MS)

[25] = The drug is tested on Ruminococcus torques strain: ATCC27756 for biotransformation. The drug concentrations were measured before and after a 12-h incubation by liquid-chromatography-coupled mass spectrometry (LC–MS); format: ADME; set-up: dose 2 uM, timepoint 0 vs 12 hours; conditions: 2 µM
[26] = The drug is tested on Clostridium scindens strain: ATCC35704 for biotransformation. The drug concentrations were measured before and after a 12-h incubation by liquid-chromatography-coupled mass spectrometry (LC–MS); conditions: 2 µM
[27] = The drug is tested on Parabacteroides merdae strain: ATCC43184 for biotransformation. The drug concentrations were measured before and after a 12-h incubation by liquid-chromatography-coupled mass spectrometry (LC–MS); conditions: 2 µM
[28] = The drug is tested on Bacteroides sp. WH2 strain: WH2 for biotransformation. The drug concentrations were measured before and after a 12-h incubation by liquid-chromatography-coupled mass spectrometry (LC–MS); conditions: bacteroides sp. wh2, 12 h, 2 µM
[29] = The drug is tested on Bacteroides cellulosilyticus strain: DSM14838 for biotransformation. The drug concentrations were measured before and after a 12-h incubation by liquid-chromatography-coupled mass spectrometry (LC–MS); conditions: 2 µM
[30] = roseburia intestinalis, 12 h, 2 µM
Description: The drug is tested on Roseburia intestinalis strain: L1-82 for biotransformation. The drug concentrations were measured before and after a 12-h incubation by liquid-chromatography-coupled mass spectrometry (LC–MS)

[31] = The drug is tested on Blautia luti strain: DSM14534 for biotransformation. The drug concentrations were measured before and after a 12-h incubation by liquid-chromatography-coupled mass spectrometry (LC–MS); format: ADME; set-up: dose 2 uM, timepoint 0 vs 12 hours; conditions: 2 µM
[32] = The drug is tested on Clostridium sporogenes strain: ATCC15579 for biotransformation. The drug concentrations were measured before and after a 12-h incubation by liquid-chromatography-coupled mass spectrometry (LC–MS); conditions: 2 µM
[33] = The drug is tested on Edwardsiella tarda strain: ATCC23685 for biotransformation. The drug concentrations were measured before and after a 12-h incubation by liquid-chromatography-coupled mass spectrometry (LC–MS); conditions: 2 µM
[34] = The drug is tested on Clostridium asparagiforme strain: DSM15981 for biotransformation. The drug concentrations were measured before and after a 12-h incubation by liquid-chromatography-coupled mass spectrometry (LC–MS); format: ADME; set-up: dose 2 uM, timepoint 0 vs 12 hours; conditions: enterocloster asparagiformis, 2 µM
[35] = The drug is tested on Bacteroides ovatus strain: ATCC8483 for biotransformation. The drug concentrations were measured before and after a 12-h incubation by liquid-chromatography-coupled mass spectrometry (LC–MS); conditions: 2 µM
[36] = anaerostipes sp., 12 h, 2 µM
Description: The drug is tested on Anaerostipes sp. strain: fecal isolate for biotransformation. The drug concentrations were measured before and after a 12-h incubation by liquid-chromatography-coupled mass spectrometry (LC–MS)

[37] = parabacteroides johnsonii, 12 h, 2 µM
Description: The drug is tested on Parabacteroides johnsonii strain: DSM18315 for biotransformation. The drug concentrations were measured before and after a 12-h incubation by liquid-chromatography-coupled mass spectrometry (LC–MS)

[38] = The drug is tested on Subdoligranulum variabile strain: DSM15176 for biotransformation. The drug concentrations were measured before and after a 12-h incubation by liquid-chromatography-coupled mass spectrometry (LC–MS); conditions: 2 µM
[39] = The drug is tested on Ruminococcus lactaris strain: ATCC29176 for biotransformation. The drug concentrations were measured before and after a 12-h incubation by liquid-chromatography-coupled mass spectrometry (LC–MS); conditions: 2 µM
[40] = The drug is tested on Bacteroides finegoldii strain: DSM17565 for biotransformation. The drug concentrations were measured before and after a 12-h incubation by liquid-chromatography-coupled mass spectrometry (LC–MS); conditions: 2 µM

## Cc1ccc(-c2cc(C(F)(F)F)nn2-c2ccc(S(N)(=O)=O)cc2)cc1 [CELECOXIB]
[1]
  Bacterial Biotransformation: Compound NOT metabolized
[2]
  Bacterial Biotransformation: Compound NOT metabolized
[3]
  Bacterial Biotransformation: Compound NOT metabolized
[4]
  Bacterial Biotransformation: Compound NOT metabolized
[5]
  Bacterial Biotransformation: Compound metabolized
[6]
  Bacterial Biotransformation: Compound NOT metabolized
[7]
  Bacterial Biotransformation: Compound NOT metabolized
[8]
  Bacterial Biotransformation: Compound NOT metabolized
[9]
  Bacterial Biotransformation: Compound NOT metabolized
[10]
  Bacterial Biotransformation: Compound NOT metabolized
[11]
  Bacterial Biotransformation: Compound NOT metabolized
[12]
  Bacterial Biotransformation: Compound NOT metabolized
[13]
  Bacterial Biotransformation: Compound NOT metabolized
[14]
  Bacterial Biotransformation: Compound NOT metabolized
[15]
  Bacterial Biotransformation: Compound NOT metabolized
[16]
  Bacterial Biotransformation: Compound NOT metabolized
[17]
  Bacterial Biotransformation: Compound NOT metabolized
[18]
  Bacterial Biotransformation: Compound NOT metabolized
[19]
  Bacterial Biotransformation: Compound NOT metabolized
[20]
  Bacterial Biotransformation: Compound NOT metabolized
[21]
  Bacterial Biotransformation: Compound NOT metabolized
[22]
  Bacterial Biotransformation: Compound NOT metabolized
[23]
  Bacterial Biotransformation: Compound NOT metabolized
[24]
  Bacterial Biotransformation: Compound NOT metabolized
[25]
  Bacterial Biotransformation: Compound NOT metabolized
[26]
  Bacterial Biotransformation: Compound NOT metabolized
[27]
  Bacterial Biotransformation: Compound NOT metabolized
[28]
  Bacterial Biotransformation: Compound NOT metabolized
[29]
  Bacterial Biotransformation: Compound NOT metabolized
[30]
  Bacterial Biotransformation: Compound NOT metabolized
[31]
  Bacterial Biotransformation: Compound NOT metabolized
[32]
  Bacterial Biotransformation: Compound metabolized
[33]
  Bacterial Biotransformation: Compound NOT metabolized
[34]
  Bacterial Biotransformation: Compound NOT metabolized
[35]
  Bacterial Biotransformation: Compound NOT metabolized
[36]
  Bacterial Biotransformation: Compound NOT metabolized
[37]
  Bacterial Biotransformation: Compound NOT metabolized
[38]
  Bacterial Biotransformation: Compound NOT metabolized
[39]
  Bacterial Biotransformation: Compound NOT metabolized
[40]
  Bacterial Biotransformation: Compound NOT metabolized
